In patent US12310975B2, “Modulators of BCL6 proteolysis and associated methods of use” (Arvinas Operations, Inc., priority 2019, dated 2025):

Molecular target: BCL6 (Homo sapiens (Human), UniProt P41182)
Test: Immunofluorescence high content imaging of BCL6 degradation in T47D cells
Format: cell-based
Conditions: for DC50: class symbols A-D, read-out: EC50 (nM)*; for Dmax: T47D
How it was run: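 Seed T47D in RPMI1640-10% FBS to reach ~70-90% confluence at endpoint; add degrader next day (11-point 3-fold series, top 0.1 or 1 μM final) for 3 days. Then fix, permeabilize, stain BCL6 with nuclear Hoechst, and image.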

Row | SMILES | DC50 | IC50 | Dmax
1 | CNC(=O)COc1cc2cc(Nc3nc(N4CCC(OCCOCCOCCCOCCCOc5ccc6c(c5)CN(C5CCC(=O)NC5=O)C6=O)CC4)ncc3Cl)ccc2n(C)c1=O (stereo not drawn) [compound 145, 2-((6-((5-chloro-2-(4-(2-(2-(3-(3-((2-(2,6-dioxopiperidin-3-yl)-1-oxoisoindolin-5-yl)oxy)propoxy)propoxy)ethoxy)ethoxy)piperidin-1-yl)pyrimidin-4-yl)amino)-1-methyl-2-oxo-1,2-dihydroquinolin-3-yl)oxy)-N-methylacetamide] | 50 to 100 nM | – | –
2 | CNC(=O)COc1cc2cc(Nc3nc(N4CCC(OCCOCCOCCCOc5ccc6c(c5)CN(C5CCC(=O)NC5=O)C6=O)CC4)ncc3Cl)ccc2n(C)c1=O (stereo not drawn) [compound 146, 2-((6-((5-chloro-2-(4-(2-(2-(3-((2-(2,6-dioxopiperidin-3-yl)-1-oxoisoindolin-5-yl)oxy)propoxy)ethoxy)ethoxy)piperidin-1-yl)pyrimidin-4-yl)amino)-1-methyl-2-oxo-1,2-dihydroquinolin-3-yl)oxy)-N-methylacetamide] | > 100 nM | – | –
3 | CNC(=O)COc1cc2cc(Nc3nc(N4CCC(OCCOCCCOCCCOc5ccc6c(c5)CN(C5CCC(=O)NC5=O)C6=O)CC4)ncc3Cl)ccc2n(C)c1=O (stereo not drawn) [compound 147, 2-((6-((5-chloro-2-(4-(2-(3-(3-((2-(2,6-dioxopiperidin-3-yl)-1-oxoisoindolin-5-yl)oxy)propoxy)propoxy)ethoxy)piperidin-1-yl)pyrimidin-4-yl)amino)-1-methyl-2-oxo-1,2-dihydroquinolin-3-yl)oxy)-N-methylacetamide] | > 100 nM | – | –
4 | CC(=O)COc1cc2cc(Nc3nc(N4CCC(N5CCCC5COc5ccc6c(c5)C(=O)N(C5CCC(=O)NC5=O)C6=O)CC4)ncc3Cl)ccc2n(C)c1=O (stereo not drawn) [compound 182, 5-((1-(1-(5-chloro-4-((1-methyl-2-oxo-3-(2-oxopropoxy)-1,2-dihydroquinolin-6-yl)amino)pyrimidin-2-yl)piperidin-4-yl)pyrrolidin-2-yl)methoxy)-2-(2,6-dioxopiperidin-3-yl)isoindoline-1,3-dione] | – | ≥ 100 nM | < 50%
5 | CNC(=O)COc1cc2cc(Nc3nc(N4CCN(C)CC4)ncc3Cl)ccc2n(CCCCOc2ccc3c(c2)C(=O)N(C2CCC(=O)NC2=O)C3=O)c1=O (stereo not drawn) [compound 238, 2-((6-((5-chloro-2-(4-methylpiperazin-1-yl)pyrimidin-4-yl)amino)-1-(4-((2-(2,6-dioxopiperidin-3-yl)-1,3-dioxoisoindolin-5-yl)oxy)butyl)-2-oxo-1,2-dihydroquinolin-3-yl)oxy)-N-methylacetamide] | – | ≥ 100 nM | < 50%
6 | CNC(=O)Cc1cc2cc(Nc3nc(N4CCC(CN5CCN(c6ccc7c(c6)C(=O)N(C6CCC(=O)NC6=O)C7=O)CC5)CC4)ncc3Cl)ccc2n(C)c1=O (stereo not drawn) [compound 239, 2-(6-((5-chloro-2-(4-((4-(2-(2,6-dioxopiperidin-3-yl)-1,3-dioxoisoindolin-5-yl)piperazin-1-yl)methyl)piperidin-1-yl)pyrimidin-4-yl)amino)-1-methyl-2-oxo-1,2-dihydroquinolin-3-yl)-N-methylacetamide] | – | ≥ 100 nM | –
7 | CNC(=O)COc1cc2cc(Nc3nc(N4CCC(OC5CCCN(c6ccc7c(c6)C(=O)N(C6CCC(=O)NC6=O)C7=O)CC5)CC4)ncc3Cl)ccc2n(C)c1=O (stereo not drawn) [compound 242, 2-((6-((5-chloro-2-(4-((1-(2-(2,6-dioxopiperidin-3-yl)-1,3-dioxoisoindolin-5-yl)azepan-4-yl)oxy)piperidin-1-yl)pyrimidin-4-yl)amino)-1-methyl-2-oxo-1,2-dihydroquinolin-3-yl)oxy)-N-methylacetamide] | – | ≥ 100 nM | –
8 | CNC(=O)COc1cc2cc(Nc3nc(N4CCN(C)CC4)ncc3Cl)ccc2n(CCCOc2ccc3c(c2)C(=O)N(C2CCC(=O)NC2=O)C3=O)c1=O (stereo not drawn) [compound 244, 2-((6-((5-chloro-2-(4-methylpiperazin-1-yl)pyrimidin-4-yl)amino)-1-(3-((2-(2,6-dioxopiperidin-3-yl)-1,3-dioxoisoindolin-5-yl)oxy)propyl)-2-oxo-1,2-dihydroquinolin-3-yl)oxy)-N-methylacetamide] | – | ≥ 100 nM | ≥ 70%

The next lines start with the values.

Row | DC50 | IC50 | Dmax | SMILES
9 | – | ≥ 100 nM | < 50% | CC(=O)COc1cc2cc(Nc3nc(N4CCC(N5CCC(Oc6ccc7c(c6)C(=O)N(C6CCC(=O)NC6=O)C7=O)C5)CC4)ncc3Cl)ccc2n(C)c1=O (stereo not drawn) [compound 177, 5-((1-(1-(5-chloro-4-((1-methyl-2-oxo-3-(2-oxopropoxy)-1,2-dihydroquinolin-6-yl)amino)pyrimidin-2-yl)piperidin-4-yl)pyrrolidin-3-yl)oxy)-2-(2,6-dioxopiperidin-3-yl)isoindoline-1,3-dione]
10 | – | 10 to 50 nM | < 50% | CC(=O)COc1cc2cc(Nc3nc(N4CCC(OC5CN(c6ccc7c(c6)C(=O)N(C6CCC(=O)NC6=O)C7=O)C5)CC4)ncc3Cl)ccc2n(C)c1=O (stereo not drawn) [compound 178, 5-(3-((1-(5-chloro-4-((1-methyl-2-oxo-3-(2-oxopropoxy)-1,2-dihydroquinolin-6-yl)amino)pyrimidin-2-yl)piperidin-4-yl)oxy)azetidin-1-yl)-2-(2,6-dioxopiperidin-3-yl)isoindoline-1,3-dione]
11 | – | ≥ 100 nM | 50 to 70% | CC(=O)COc1cc2cc(Nc3nc(N4CCOC(COc5ccc6c(c5)C(=O)N(C5CCC(=O)NC5=O)C6=O)C4)ncc3Cl)ccc2n(C)c1=O (stereo not drawn) [compound 179, 5-((4-(5-chloro-4-((1-methyl-2-oxo-3-(2-oxopropoxy)-1,2-dihydroquinolin-6-yl)amino)pyrimidin-2-yl)morpholin-2-yl)methoxy)-2-(2,6-dioxopiperidin-3-yl)isoindoline-1,3-dione]
12 | – | ≥ 100 nM | – | CC(=O)COc1cc2cc(Nc3nc(N4CCC(OCCOC5CCN(c6ccc7c(c6)C(=O)N(C6CCC(=O)NC6=O)C7=O)CC5)C4)ncc3Cl)ccc2n(C)c1=O (stereo not drawn) [compound 180, 5-(4-(2-((1-(5-chloro-4-((1-methyl-2-oxo-3-(2-oxopropoxy)-1,2-dihydroquinolin-6-yl)amino)pyrimidin-2-yl)pyrrolidin-3-yl)oxy)ethoxy)piperidin-1-yl)-2-(2,6-dioxopiperidin-3-yl)isoindoline-1,3-dione]
13 | – | ≥ 100 nM | – | CC(=O)COc1cc2cc(Nc3nc(C#CC4CCCN(c5ccc6c(c5)C(=O)N(C5CCC(=O)NC5=O)C6=O)C4)ncc3Cl)ccc2n(C)c1=O (stereo not drawn) [compound 181, 5-(3-((5-chloro-4-((1-methyl-2-oxo-3-(2-oxopropoxy)-1,2-dihydroquinolin-6-yl)amino)pyrimidin-2-yl)ethynyl)piperidin-1-yl)-2-(2,6-dioxopiperidin-3-yl)isoindoline-1,3-dione]
14 | – | 10 to 50 nM | < 50% | CC(=O)COc1cc2cc(Nc3nc(N4CC(OC5CCN(c6ccc7c(c6)C(=O)N(C6CCC(=O)NC6=O)C7=O)CC5)C4)ncc3Cl)ccc2n(C)c1=O (stereo not drawn) [compound 183, 5-(4-((1-(5-chloro-4-((1-methyl-2-oxo-3-(2-oxopropoxy)-1,2-dihydroquinolin-6-yl)amino)pyrimidin-2-yl)azetidin-3-yl)oxy)piperidin-1-yl)-2-(2,6-dioxopiperidin-3-yl)isoindoline-1,3-dione]
15 | – | 10 to 50 nM | 50 to 70% | CC(=O)COc1cc2cc(Nc3nc(C#CC4CCN(c5cccc6c5C(=O)N(C5CCC(=O)NC5=O)C6=O)CC4)ncc3Cl)ccc2n(C)c1=O (stereo not drawn) [compound 184, 4-(4-((5-chloro-4-((1-methyl-2-oxo-3-(2-oxopropoxy)-1,2-dihydroquinolin-6-yl)amino)pyrimidin-2-yl)ethynyl)piperidin-1-yl)-2-(2,6-dioxopiperidin-3-yl)isoindoline-1,3-dione]
16 | – | 10 to 50 nM | 50 to 70% | CNC(=O)COc1cc2cc(Nc3nc(N4CCN(CC5(O)CCN(c6ccc7c(c6)C(=O)N(C6CCC(=O)NC6=O)C7=O)CC5)CC4)ncc3Cl)ccc2n(C)c1=O (stereo not drawn) [compound 240, 2-((6-((5-chloro-2-(4-((1-(2-(2,6-dioxopiperidin-3-yl)-1,3-dioxoisoindolin-5-yl)-4-hydroxypiperidin-4-yl)methyl)piperazin-1-yl)pyrimidin-4-yl)amino)-1-methyl-2-oxo-1,2-dihydroquinolin-3-yl)oxy)-N-methylacetamide]
17 | – | 10 to 50 nM | < 50% | CNC(=O)COc1cc2cc(Nc3nc(N4CCCC(OC5CCN(c6ccc7c(c6)C(=O)N(C6CCC(=O)NC6=O)C7=O)CC5)CC4)ncc3Cl)ccc2n(C)c1=O (stereo not drawn) [compound 241, 2-((6-((5-chloro-2-(4-((1-(2-(2,6-dioxopiperidin-3-yl)-1,3-dioxoisoindolin-5-yl)piperidin-4-yl)oxy)azepan-1-yl)pyrimidin-4-yl)amino)-1-methyl-2-oxo-1,2-dihydroquinolin-3-yl)oxy)-N-methylacetamide]
18 | – | < 10 nM | ≥ 70% | CNC(=O)COc1cc2cc(Nc3nc(N4CCN(CC5CCN(c6ccc(C(=O)NC7CCC(=O)NC7=O)c(OC)c6)CC5)CC4)ncc3Cl)ccc2n(C)c1=O (stereo not drawn) [compound 243, 4-(4-((4-(5-chloro-4-((1-methyl-3-(2-(methylamino)-2-oxoethoxy)-2-oxo-1,2-dihydroquinolin-6-yl)amino)pyrimidin-2-yl)piperazin-1-yl)methyl)piperidin-1-yl)-N-(2,6-dioxopiperidin-3-yl)-2-methoxybenzamide]
19 | – | < 10 nM | ≥ 70% | CNC(=O)COc1cc2cc(Nc3nc(N4CCN(CC5CN(c6ccc7c(c6)C(=O)N(C6CCC(=O)NC6=O)C7=O)C5)CC4)ncc3Cl)ccc2n(C)c1=O (stereo not drawn) [compound 246, 2-((6-((5-chloro-2-(4-((1-(2-(2,6-dioxopiperidin-3-yl)-1,3-dioxoisoindolin-5-yl)azetidin-3-yl)methyl)piperazin-1-yl)pyrimidin-4-yl)amino)-1-methyl-2-oxo-1,2-dihydroquinolin-3-yl)oxy)-N-methylacetamide]
20 | – | < 10 nM | 50 to 70% | CNC(=O)COc1cc2cc(Nc3nc(N4CCC(CCOC5CN(c6ccc7c(c6)C(=O)N(C6CCC(=O)NC6=O)C7=O)C5)CC4)ncc3Cl)ccc2n(C)c1=O (stereo not drawn) [compound 247, 2-((6-((5-chloro-2-(4-(2-((1-(2-(2,6-dioxopiperidin-3-yl)-1,3-dioxoisoindolin-5-yl)azetidin-3-yl)oxy)ethyl)piperidin-1-yl)pyrimidin-4-yl)amino)-1-methyl-2-oxo-1,2-dihydroquinolin-3-yl)oxy)-N-methylacetamide]
